Drawing on PubChem BioAssay (NCI), this text covers GI50 and TGI for 17 compounds.

Values joined by “and” are separate entries in the source; they are usually repeats but may differ in a detail not shown here. Equal values may be shown once.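 Interpolation was linear, between the two tested concentrations surrounding the appropriate level; five concentrations were tested over 48 hours in 96-well plates. GI50 is the concentration that inhibits growth by half. TGI marks complete inhibition of growth.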

Test systems include T-47D breast; MCF7 breast; BT-549 breast; NCI/ADR-RES ovarian; MDA-N.
Holding throughout (assay): NCI anticancer screen, dose series, 48 h

For the compound `COc1ccc(-c2cc(-c3ccc(Nc4nc(Nc5ccc(Cl)cc5)nc(Nc5ccc(Cl)cc5)n4)cc3)no2)cc1`, the GI50 was 6.26 µM in the test with T-47D breast, 7.86 µM in the test on MCF7 breast, 17.2 µM in the test with BT-549 breast and 16.3 µM with NCI/ADR-RES ovarian. For the same compound, the TGI is greater than 100 µM with T-47D breast, 47.5 µM with MCF7 breast, 72 µM in the test on BT-549 breast and 53.9 µM in the test with NCI/ADR-RES ovarian.

On to `CC(C)C1C(=O)N2CCCC2C2(O)OC(NC(=O)C3C=C4c5cccc6[nH]cc(c56)CC4N(C)C3)(C(C)C)C(=O)N12` (stereo not given), for which the TGI in the test with T-47D breast is greater than 100 µM; in the test with MCF7 breast it was greater than 100 µM; in the test with BT-549 breast, 88.6 µM; in the test with NCI/ADR-RES ovarian it was 57.5 µM; in the test with MDA-N, 67.5 µM.

In the case of `O=C1C2CC3C(CC2C(=O)[N]1[Sn]([c]1ccccc1)([c]1ccccc1)[c]1ccccc1)C1(Cl)C(Cl)=C(Cl)C3(Cl)C1(Cl)Cl` (stereo not given), the GI50 in the test on T-47D breast is 0.0393 µM; with MCF7 breast it was 0.0376 µM; in the test with BT-549 breast, 0.185 µM. In addition, the TGI in the test with T-47D breast was determined as 0.22 µM; in the test with MCF7 breast it was 0.154 µM; with BT-549 breast, 0.369 µM.

As for `C[C@H]1CCC/C=C/[C@@H]2C[C@H](O)C[C@H]2[C@H](O)[C@H](S(=O)c2ccc(O)cc2)CC(=O)O1` (stereo not given in full), the GI50 was 0.2 µM with T-47D breast; 0.0323 µM in the test on MCF7 breast; 0.0472 µM in the test on BT-549 breast; 0.0174 µM in the test on NCI/ADR-RES ovarian; 0.0409 µM in the test with MDA-N. Also, the TGI in the test on T-47D breast was 0.67 µM; with BT-549 breast it was greater than 100 µM; with NCI/ADR-RES ovarian it was 0.0758 µM.

For the compound `Cc1cc(NC(=O)c2ccc(NS(=O)(=O)CCO)cc2N2CCC3(CC2)CC3)nc(N2CCC(F)(F)CC2)n1`, the GI50 in the test with T-47D breast is 12.5 µM; in the test with MCF7 breast, 8.33 µM; in the test with BT-549 breast it was 0.486 µM; in the test on NCI/ADR-RES ovarian, 0.428 µM. Besides, the TGI stood at 31.8 µM with T-47D breast, 25.2 µM with MCF7 breast, 17.9 µM in the test with BT-549 breast and 16.1 µM with NCI/ADR-RES ovarian.

With `COc1cc(N2CCC(N3CCN(C)CC3)CC2)ccc1Nc1ncc(Cl)c(Nc2ccccc2P(C)(C)=O)n1`, the GI50 is greater than 100 µM with T-47D breast, 0.414 µM in the test on MCF7 breast, 3.07 µM with BT-549 breast and 3 µM with NCI/ADR-RES ovarian. In addition, the TGI is greater than 100 µM with T-47D breast, greater than 100 µM with MCF7 breast and 13.5 µM in the test with BT-549 breast.

For `O=S(=O)(NCCNc1cc(-c2cn(-c3ccccc3)nc2-c2cccc(O)c2)ccn1)c1ccc(C(F)(F)F)cc1`, the GI50 with T-47D breast is 1.84 µM; in the test on MCF7 breast it was 2.29 µM; with BT-549 breast, 2.02 µM; in the test with NCI/ADR-RES ovarian it was 3.21 µM. The TGI with T-47D breast was found to be 6.73 µM; in the test on MCF7 breast it was 9.78 µM; with BT-549 breast, 7.07 µM; in the test with NCI/ADR-RES ovarian it was 16.6 µM.

Regarding `CCCCCCCCCCCCCCCCC1=CC(=O)C=C(OC)C1=O`, the TGI in the test on MCF7 breast, with NCI/ADR-RES ovarian and with MDA-N was greater than 100 µM throughout.

Turning to `COc1ccc(OC)c(/C=C/c2nnc(Nc3ccc(Cl)cc3)o2)c1`, the results for the GI50 in the test on T-47D breast, with MCF7 breast and in the test on NCI/ADR-RES ovarian were 2.54 µM, 20.7 µM and 7.62 µM, respectively. The results for the TGI with T-47D breast, with MCF7 breast and with NCI/ADR-RES ovarian were greater than 100 µM, greater than 100 µM and 98.1 µM, respectively.

For the compound `CCN(Cc1ccc(F)cc1)c1ccc(CO)c(Cl)c1`, the GI50 in the test with T-47D breast was 0.0821 µM; with MCF7 breast, 0.155 µM; in the test with BT-549 breast, 9.27 µM; in the test with NCI/ADR-RES ovarian it was 11.6 µM. Further, the TGI in the test on T-47D breast was 0.472 µM; in the test on MCF7 breast, 7.05 µM; with BT-549 breast it was 29.7 µM; with NCI/ADR-RES ovarian, 34.4 µM.

As for `O=C1C=C(Nc2ccccc2)c2ncccc2C1=O`, the GI50 in the test on T-47D breast was 1.27 µM; with MCF7 breast, 0.203 µM; with BT-549 breast, 1.28 µM; in the test on NCI/ADR-RES ovarian, 0.33 µM. Moreover, the TGI worked out at 3.58 µM in the test with T-47D breast, 0.452 µM with MCF7 breast, 2.64 µM with BT-549 breast and 1.88 µM with NCI/ADR-RES ovarian.

On to `O=S(=O)(/C=C/C=C/S(=O)(=O)c1ccccc1)c1ccccc1`, for which the TGI with T-47D breast was 2.69 µM; in the test on MCF7 breast it was 3.81 µM and 2.3 µM; in the test with BT-549 breast, 3.15 µM; in the test with NCI/ADR-RES ovarian it was 3.89 µM and 4.68 µM; with MDA-N it was 2.88 µM and 7.28 µM. The results for the GI50 in the test with MCF7 breast, in the test on NCI/ADR-RES ovarian and in the test on MDA-N were 0.525 µM, 2.16 µM and 1.4 µM, respectively.

Regarding `CCc1ccc(C2=C/C(=C/c3ccc(Cl)cc3)C(=O)N2CCc2ccc(S(N)(=O)=O)cc2)cc1`, the GI50 in the test on T-47D breast was 3.09 µM; in the test on MCF7 breast, 2.22 µM; in the test on BT-549 breast, 1.79 µM; in the test with NCI/ADR-RES ovarian, 4.6 µM. Besides, the TGI with T-47D breast was found to be 11.9 µM; with MCF7 breast, 7.99 µM; in the test with BT-549 breast, 3.42 µM; in the test on NCI/ADR-RES ovarian, 41.4 µM.

For the compound `CCN1C(=O)N(CC)C2C1NN=c1s/c(=C3\C(=O)N(CCC(C)C)c4ccccc43)c(=O)n12` (stereo not given), in the test with MCF7 breast, the GI50 is 0.412 µM and the TGI stood at 41.9 µM. In addition, in the test on BT-549 breast, the GI50 was 1.96 µM and the TGI was 6.33 µM.

Regarding `COc1cc2[nH]c(C(=O)c3cc(OC)c(OC)c(OC)c3)c(N)c2cc1C#CCO`, in the test on MCF7 breast, the GI50 was 0.0886 µM and the TGI was greater than 100 µM. Also, in the test with NCI/ADR-RES ovarian, the GI50 was 2.22 µM and the TGI turned out to be 32.6 µM.

Take `CCOC(=O)[C@H](CSSc1ncnc2cc[nH]c12)NC(=O)[C@@H](C)c1ccc2cc(OC)ccc2c1`: the GI50 in the test on T-47D breast was 0.0375 µM; with MCF7 breast, 0.122 µM; in the test with BT-549 breast it was 0.916 µM; with NCI/ADR-RES ovarian, 0.687 µM. Besides, the TGI in the test on T-47D breast, in the test on MCF7 breast, with BT-549 breast and in the test on NCI/ADR-RES ovarian was greater than 100 µM each time.

`CN1CCN(C(=O)c2ccc(NC(=O)Nc3ccc(N(C)c4ccnc(Nc5ccc(CS(C)(=O)=O)cc5)n4)cc3)cc2)CC1`: the GI50 was 4.68 µM in the test with T-47D breast, 7.41 µM in the test on MCF7 breast, 9.05 µM in the test on BT-549 breast and greater than 25 µM in the test on NCI/ADR-RES ovarian. The TGI in the test with T-47D breast was 19.7 µM; in the test with MCF7 breast, greater than 25 µM; in the test with BT-549 breast it was greater than 25 µM; in the test on NCI/ADR-RES ovarian it was greater than 25 µM.
